Molecular target: T1, human SGLT2 (Homo sapiens, UniProt P31639, I433V)
T1 construct: expressed in transfected cells; host or cells: COS-7 cells (RIKEN CELL BANK RCB0539), transient, electroporation
T1 sequence (P31639 1-672 I433V): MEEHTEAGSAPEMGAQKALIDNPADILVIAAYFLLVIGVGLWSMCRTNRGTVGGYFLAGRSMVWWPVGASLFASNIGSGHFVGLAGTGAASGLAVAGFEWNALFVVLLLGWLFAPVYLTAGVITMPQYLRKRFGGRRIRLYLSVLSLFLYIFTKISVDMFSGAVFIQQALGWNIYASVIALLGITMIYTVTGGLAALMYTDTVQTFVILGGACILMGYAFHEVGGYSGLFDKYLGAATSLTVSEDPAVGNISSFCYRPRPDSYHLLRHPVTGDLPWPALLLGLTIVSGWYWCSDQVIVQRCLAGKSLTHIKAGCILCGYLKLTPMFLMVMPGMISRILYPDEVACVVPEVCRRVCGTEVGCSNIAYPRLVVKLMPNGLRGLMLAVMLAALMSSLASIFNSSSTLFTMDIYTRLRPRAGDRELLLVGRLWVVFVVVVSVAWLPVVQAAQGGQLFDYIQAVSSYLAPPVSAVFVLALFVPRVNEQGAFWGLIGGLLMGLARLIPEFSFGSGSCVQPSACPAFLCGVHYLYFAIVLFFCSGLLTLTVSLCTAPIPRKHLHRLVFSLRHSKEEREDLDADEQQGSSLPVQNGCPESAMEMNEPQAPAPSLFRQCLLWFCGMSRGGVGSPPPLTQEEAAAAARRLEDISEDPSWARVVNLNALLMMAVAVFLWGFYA
Assay: Assay for inhibitory effect on human SGLT2 activity (methyl-α-D-glucopyranoside uptake in COS-7 cells transiently expressing human SGLT2)
Type: cell-based
Conditions: inhibition of methyl-α-D-glucopyranoside uptake, COS-7 cells expressing human SGLT2, 37° C., 2 hours
Protocol: Assay for Inhibitory Effect on Human SGLT2 Activity
1) Construction of the Plasmid Vector Expressing Human SGLT2
Preparation of the cDNA library for PCR amplification was performed by reverse transcription of a total RNA deprived from human kidney (Ori gene) with oligo dT as the primer, using SUPERSCRIPT Preamplification System (Gibco-BRL: LIFE TECHNOLOGIES). The DNA fragment coding for human SGLT2 was amplified by the PCR reaction, in which the human kidney cDNA library described above was used as the template and the following oligo nucleotides 0702F and 0712R, presented as sequence number 1 and 2 respectively, were used as the primers. The amplified DNA fragment was ligated into pCR-Blunt (Invitrogen), a vector for cloning, according to standard method of the kit. The Escherichia coli HB101 was transformed according to usual method and then selection of the transformants was performed on the LB agar medium containing 50 μg/mL of kanamycin. After plasmid DNA was extracted and purified from the one of the transformants, amplifying of the DNA fragment coding for human SGLT2 was performed by the PCR reaction, in which the following oligo nucleotides 0714F and 0715R, presented as sequence number 3 and 4 respectively, were used as the primers. The amplified DNA fragment was digested with restriction enzymes, Xho I and Hind III, and then purified with Wizard Purification System (Promega). This purified DNA fragment was inserted at into the corresponding restriction sites of pcDNA3.1 (−) Myc/His—B (Invitrogen), a vector for expressing of fusion protein. The Escherichia coli HB101 was transformed according to usual method and then selection of the transformant was performed on the LB agar medium containing 100 μg/mL of ampicillin. After plasmid DNA was extracted and purified from this transformant, the base sequence of the DNA fragment inserted at the multi-cloning sites of the vector pcDNA3.1 (−) Myc/His—B was analyzed. […] Sequentially, a clone in which valine is substituted for isoleucine-433 was obtained. This plasmid vector expressing human SGLT2 in which the peptide presented as sequence number 5 is fused to the carboxyl terminal alanine residue was designated KL29.
2) Preparation of the Cells Expressing Transiently Human SGLT2
KL29, the plasmid coding human SGLT2, was transfected into COS-7 cells (RIKEN CELL BANK RCB0539) by electroporation. Electroporation was performed with GENE PULSER II (Bio-Rad Laboratories) under the condition: 0.290 kV, 975 μF, 2×10^6 cells of COS-7 cell and 20 μg of KL29 in 500 μL of OPTI-MEM I medium (Gibco-BRL: LIFE TECHNOLOGIES) in the 0.4 cm type cuvette. After the gene transfer, the cells were harvested by centrifugation and resuspended with OPTI-MEM I medium (1 mL/cuvette). To each well in 96-wells plate, 125 μL of this cell suspension was added. After overnight culture at 37° C. under 5% CO2, 125 μL of DMEM medium which is containing 10% of fetal bovine serum (Sanko Jyunyaku), […] sodium penicillin G (Gibco-BRL: LIFE TECHNOLOGIES), 100 μg/mL streptomycin sulfate (Gibco-BRL: LIFE TECHNOLOGIES) was added to each well. These cells were cultured until the next day and then they were used for the measurement of the inhibitory activity against the uptake of methyl-α-D-glucopyranoside.
3) Measurement of the Inhibitory Activity Against the Uptake of methyl-α-D-glucopyranoside
After a test compounds was dissolved in dimethyl sulfoxide and diluted with the uptake buffer (a pH 7.4 buffer containing 140 mM sodium chloride, 2 mM potassium chloride, 1 mM calcium chloride, 1 mM magnesium chloride, 5 mM methyl-α-D-glucopyranoside, 10 mM 2-[4-(2-hydroxyethyl)-1-piperazinyl]ethane sulfonic acid and 5 mM tris(hydroxymethyl)aminomethane), each diluent was used as test sample for measurement of the inhibitory activity. […]

Q: How did the IC50 turn out when `Cc1[nH]nc(O[C@@H]2O[C@H](CO)[C@@H](O)[C@H](O)[C@H]2O)c1Cc1ccc(OC(C)C)cc1` [Reference Example 37, 3-(β-D-Glucopyranosyloxy)-4-[(4-isopropoxyphenyl)methyl]-5-methyl-1H-pyrazole] was run?
A: The IC50 was 181 nM.

Q: `CCCc1ccc(Cc2c(O[C@@H]3O[C@H](CO)[C@@H](O)[C@H](O)[C@H]3O)n[nH]c2C)cc1` [Reference Example 38, 3-(β-D-Glucopyranosyloxy)-5-methyl-4-[(4-propylphenyl)-methyl]-1H-pyrazole] was tested. Which IC50 did it give?
A: Its IC50 is 441 nM.

Q: How did the IC50 turn out when `CCCOc1ccc(Cc2c(O[C@@H]3O[C@H](CO)[C@@H](O)[C@H](O)[C@H]3O)n[nH]c2C)cc1` [Reference Example 40, 3-(β-D-Glucopyranosyloxy)-5-methyl-4-[(4-propoxyphenyl)-methyl]-1H-pyrazole] was run?
A: The IC50 was 702 nM.

Q: Which IC50 does the source give for `CCOc1ccc(Cc2c(O[C@@H]3O[C@H](CO)[C@@H](O)[C@H](O)[C@H]3O)n[nH]c2C)cc1` [Reference Example 41, 4-[(4-Ethoxyphenyl)methyl]-3-(β-D-glucopyranosyloxy)-5-methyl-1H-pyrazole] here?
A: Its IC50 is 185 nM.

Q: With `CSc1ccc(Cc2c(O[C@@H]3O[C@H](CO)[C@@H](O)[C@H](O)[C@H]3O)n[nH]c2C)cc1` [Reference Example 45, 3-(β-D-Glucopyranosyloxy)-5-methyl-4-[(4-methylthiophenyl)-methyl]-1H-pyrazole] as the molecule, how does the IC50 read?
A: The IC50 was 84 nM.

Q: With `CCc1[nH]nc(O[C@@H]2O[C@H](CO)[C@@H](O)[C@H](O)[C@H]2O)c1Cc1ccc(SC)cc1` [Reference Example 46, 5-Ethyl-3-(β-D-glucopyranosyloxy)-4-[(4-methylthiophenyl)-methyl]-1H-pyrazole] as the molecule, how does the IC50 read?
A: The IC50 was 509 nM.

Q: With `Cc1[nH]nc(O[C@@H]2O[C@H](CO)[C@@H](O)[C@H](O)[C@H]2O)c1Cc1ccc(C(C)C)cc1` [Reference Example 47, 3-(β-D-Glucopyranosyloxy)-4-[(4-isopropylphenyl)methyl]-5-methyl-1H-pyrazole] as the molecule, how does the IC50 read?
A: Its IC50 is 441 nM.

Q: `CSc1ccc(Cc2c(O[C@@H]3O[C@H](CO)[C@@H](O)[C@H](O)[C@H]3O)n[nH]c2C(F)(F)F)cc1` [Reference Example 48, 3-(β-D-Glucopyranosyloxy)-4-[(4-methylthiophenyl)methyl]-5-trifluoromethyl-1H-pyrazole] was tested. Which IC50 did it give?
A: The IC50 was 679 nM.

Q: `COc1ccc(Cc2c(O[C@@H]3O[C@H](CO)[C@@H](O)[C@H](O)[C@H]3O)n[nH]c2C(F)(F)F)cc1` [Reference Example 50, 3-(β-D-Glucopyranosyloxy)-4-[(4-methoxyphenyl)methyl]-5-trifluoromethyl-1H-pyrazole] was tested. Which IC50 did it give?
A: Its IC50 is 415 nM.

Q: `COc1ccc(Cc2c(O[C@@H]3O[C@H](CO)[C@@H](O)[C@H](O)[C@H]3O)n[nH]c2C)cc1` [Reference Example 51, 3-(β-D-Glucopyranosyloxy)-4-[(4-methoxyphenyl)methyl]-5-methyl-1H-pyrazole] was tested. Which IC50 did it give?
A: Its IC50 is 383 nM.

Q: With `CSc1ccc(Cc2c(O[C@@H]3O[C@H](CO)[C@@H](O)[C@H](O)[C@H]3O)nn(C)c2C(F)(F)F)cc1` [Reference Example 54, 3-(β-D-Glucopyranosyloxy)-1-methyl-4-[(4-methylthiophenyl)-methyl]-5-trifluoromethylpyrazole] as the molecule, how does the IC50 read?
A: The IC50 was 835 nM.

Q: How did the IC50 turn out when `Cc1ccc(Cc2c(O[C@@H]3O[C@H](CO)[C@@H](O)[C@H](O)[C@H]3O)n[nH]c2C)cc1` [Reference Example 57, 3-(β-D-Glucopyranosyloxy)-5-methyl-4-[(4-methylphenyl)-methyl]-1H-pyrazole] was run?
A: Its IC50 is 280 nM.

Q: `CCc1ccc(Cc2c(O[C@@H]3O[C@H](CO)[C@@H](O)[C@H](O)[C@H]3O)n[nH]c2C)cc1` [Reference Example 58, 4-[(4-Ethylphenyl)methyl]-3-(β-D-glucopyranosyloxy)-5-methyl-1H-pyrazole] was tested. Which IC50 did it give?
A: Its IC50 is 190 nM.

Q: With `CCc1ccc(Cc2c(O[C@@H]3O[C@H](CO)[C@@H](O)[C@H](O)[C@H]3O)n[nH]c2C(F)(F)F)cc1` [Reference Example 60, 4-[(4-Ethylphenyl)methyl]-3-(β-D-glucopyranosyloxy)-5-trifluoromethyl-1H-pyrazole] as the molecule, how does the IC50 read?
A: The IC50 was 634 nM.

Q: With `Cc1c(Cc2ccc(OC(C)C)cc2)c(O[C@@H]2O[C@H](CO)[C@@H](O)[C@H](O)[C@H]2O)nn1C(C)C` [Reference Example 72, 3-(β-D-Glucopyranosyloxy)-4-[(4-isopropoxyphenyl)methyl]-1-isopropyl-5-methylpyrazole] as the molecule, how does the IC50 read?
A: Its IC50 is 369 nM.

— patent US20060035847A1, “Glucopyranosyloxyprazole derivatives and use thereof in medicines” (KISSEI PHARMACEUTICAL CO., LTD., priority 2000, published 2006)
